Source: patent US20240317777A1, “NOVEL MACROCYCLIC AMINOPYRAZOLE COMPOUNDS AS CDK2 INHIBITORS” (Accutar Biotechnology Inc., priority 2023, published 2024)
Read-outs that look alike come from different tables or passages of the source.

What was measured:
[1] = tested on: CCNE1-amplified OVCAR3 cells; experiment: Cell growth inhibition of CCNE1-amplified OVCAR3 cells (CellTiter-Glo); format: cell-based; settings: 6 days
Description: Cell Growth Inhibition of CCNE1-Amplified OVCAR3 Cells
OVCAR3 cells were seeded in 96-well plates at 2000 cells/well in 90 μl of RPM11640 growth medium containing 10% FBS and 1% Penicillin Streptomycin, and then incubated at 37° C. overnight. The following day, the test compound was administered to the cells by using 1000× compound stock solution prepared in DMSO at various concentrations. 1000× compound stock solution was first diluted in culturing medium to 10x, then 10 uL compound medium was added to each well in the cell plates. After administration of the compound, the cells were then incubated at 37° C. for 6 days. Upon completion, the plates were equilibrated at room temperature for approximately 10 minutes. 100 ul of CellTiter-Glo® Reagent (Promega) was added to each well. The plates were then incubated at room temperature for 10 minutes and luminescence was recorded by EnSpire plate reader (PerkinElmer).

[2] = tested on: Phospho-Rb (Ser807/811) in OVCAR3 cells; experiment: Phospho-Rb expression inhibition in OVCAR3 cells quantified by In Cell Western; format: cell-based; settings: read-out: OVCAR-3 pRb IC50
Description: Phospho-Rb Expression Inhibition in OVCAR3 Cells Quantified by in Cell Western
OVCAR3 cells were obtained from American Type Culture Collection (ATCC, HTB-161). OVCAR3 cells were plated in 96-well plates (VWR #10062-900, or Corning #3904) in 90 uL culture medium at a density of 20,000 cells/well in the RPM11640 growth medium containing 10% FBS and 1% Penicillin Streptomycin, and then incubated at 37° C. overnight. The following day, the test compound was administered to the cells by using 1000× compound stock solution prepared in DMSO at various concentrations. 1000× compound stock solution was first diluted in culturing medium to 10x, then 10 uL compound medium was added to each well in the cell plates. After administration of the compound, the cells were then incubated at 37° C. for 24 hours. Upon completion, the cells were washed with PBS briefly. 150 uL/well of 4% formaldehyde was added and the plates were incubated at room temperature for 20 mins. The cells were washed with PBS briefly, and permeabilized with 150 uL/well of ice cold 100% methanol for 10 mins. The cells were washed with PBS briefly and blocked with 100 uL/well LI-COR blocking buffer for 1 hr at room temperature with gentle shaking. The cells were incubated overnight at 4° C. with 50 uL primary antibody rabbit anti-Phospho-Rb (Ser807/811) (1:500, Cell Signaling, #8516) and anti-Rb (1:200, Santa Cruz, sc-73598) diluted in Intercept Blocking Buffer (LI-COR, #927-60001) containing 0.1% Tween 20. The next day, the cells were washed with 200 uL PBS containing 0.1% Tween 20, 5×5 mins at room temperature with gentle shaking, and incubated with 50 uL secondary antibody, IRDye® 800CW Goat anti-Rabbit IgG (1:1000, LI-COR, #926-32211) and IRDye® 680RD Goat anti-Mouse IgG (1:1000, LI-COR, #926-68070), in LI-COR blocking buffer with 0.2% Tween 20 for 1 hr at room temperature with gentle shaking. The cells were washed with 200 uL PBS containing 0.1% Tween 20, 5×5 mins at room temperature with gentle shaking. The cells were washed with PBS for 5 mins. 100 uL fresh PBS was added to each well and the plates were imaged on a LI-COR Odyssey CLX plate reader.

[3] = Homo sapiens, OVCAR-3, 24 hours

| SMILES | IC50 ([1]; Homo sapiens, OVCAR-3, 144 h) | IC50 [2, 3] | IC50 [1] | IC50 ([2]; 24 hours) |
| --- | --- | --- | --- | --- |
| O=C1NCCCOc2cc(ccn2)Nc2cc([nH]n2)[C@H]2CC[C@H](C2)O1 [Compound 2, (1^1S,1^3R,Z)-2^1H-5,11-dioxa-3,9-diaza-4(4,2)-pyridina-2(3,5)-pyrazola-1(1,3)-cyclopentanacycloundecaphan-10-one] | > 250 nM | > 250 nM |  |  |
| C[C@@H]1CCC(C)(C)NC(=O)O[C@@H]2CC[C@@H](C2)c2cc([nH]n2)Nc2ccnc(c2)O1 [Compound 112, (1^1S,1^3R,6R,Z)-6,9,9-trimethyl-2^1H-5,12-dioxa-3,10-diaza-4(4,2)-pyridina-2(3,5)-pyrazola-1(1,3)-cyclopentanacyclododecaphan-11-one] | > 250 nM | 50 to 250 nM |  |  |
| C[C@@H]1CCC(C)(C)NC(=O)O[C@@H]2CC[C@@H](C2)c2cc([nH]n2)Nc2cncc(c2)O1 [Compound 123, (1^1S,1^3R,6R,Z)-6,9,9-trimethyl-2^1H-5,12-dioxa-3,10-diaza-4(3,5)-pyridina-2(3,5)-pyrazola-1(1,3)-cyclopentanacyclododecaphan-11-one] | > 250 nM | > 250 nM |  |  |
| O=C1N[C@H](C(F)(F)F)CCCOc2cc(ccn2)Nc2cc(n[nH]2)[C@H]2CC[C@H](C2)O1 [Compound 127, (1^1S,1^3R,9S,Z)-9-(trifluoromethyl)-2^1H-5,12-dioxa-3,10-diaza-4(4,2)-pyridina-2(3,5)-pyrazola-1(1,3)-cyclopentanacyclododecaphan-11-one] | > 250 nM | > 250 nM |  |  |
| O=C1NC2CCN(CC2)c2cc(ccn2)Nc2cc(n[nH]2)[C@H]2CC[C@H](C2)O1 [Compound 136, (5^1S,5^3R,Z)-4^1H-6-oxa-3,8-diaza-2(2,4)-pyridina-1(1,4)-piperidina-4(5,3)-pyrazola-5(1,3)-cyclopentanacyclooctaphan-7-one] | > 250 nM | > 250 nM |  |  |
| C[C@H]1Oc2cc(ccn2)Nc2cc(n[nH]2)[C@H]2CC[C@H](C2)OC(=O)N[C@H]2C[C@@H]1C2 [Compound 143, (1^1S,1^3R,7^1S,7^3S,6R,Z)-6-methyl-2^1H-5,10-dioxa-3,8-diaza-4(4,2)-pyridina-2(3,5)-pyrazola-1(1,3)-cyclopentana-7(1,3)-cyclobutanacyclodecaphan-9-one] | 50 to 250 nM | 50 to 250 nM |  |  |
| CC1CCCNC(=O)OC2CCC(C2)c2cc([nH]n2)Nc2cc(c[n+]([O-])c2)O1 [Compound 153, (1^1S,1^3R,6R,Z)-6-methyl-11-oxo-2^1H-5,12-dioxa-3,10-diaza-4(3,5)-pyridin-1-iuma-2(3,5)-pyrazola-1(1,3)-cyclopentanacyclododecaphane 41-oxide] |  |  | > 250 nM | > 250 nM |
| CC1CCCNC(=O)OC2CCC(C2)c2cc([nH]n2)Nc2cc(c[n+]([O-])c2)O1 [Compound 154, (1^1S,1^3R,6S,Z)-6-methyl-11-oxo-2^1H-5,12-dioxa-3,10-diaza-4(3,5)-pyridin-1-iuma-2(3,5)-pyrazola-1(1,3)-cyclopentanacyclododecaphane 41-oxide] |  |  | > 250 nM | 50 to 250 nM |
| C[C@@H]1CCCNC(=O)O[C@@H]2CC[C@@H](C2)c2cc([nH]n2)Nc2cccc(c2)O1 [Compound 156, (1^1S,1^3R,6R,Z)-6-methyl-2^1H-5,12-dioxa-3,10-diaza-2(3,5)-pyrazola-4(1,3)-benzena-1(1,3)-cyclopentanacyclododecaphan-11-one] | > 250 nM | > 250 nM |  |  |
| O=C1NCCCO[C@H](C(F)(F)F)c2cc(ccn2)Nc2cc(n[nH]2)[C@H]2CC[C@H](C2)O1 [Compound 160, (1^1S,1^3R,5S,Z)-5-(trifluoromethyl)-2^1H-6,12-dioxa-3,10-diaza-4(4,2)-pyridina-2(3,5)-pyrazola-1(1,3)-cyclopentanacyclododecaphan-11-one] | 50 to 250 nM | 50 to 250 nM |  |  |
| [2H]C1([2H])CC[C@H](C)NC(=O)O[C@@H]2CC[C@@H](C2)c2cc([nH]n2)Nc2cc(ncc2F)O1 [Compound 175, (1^1S,1^3R,9S,Z)-4^5-fluoro-9-methyl-2^1H-5,12-dioxa-3,10-diaza-4(4,2)-pyridina-2(3,5)-pyrazola-1(1,3)-cyclopentanacyclododecaphan-11-one-6,6-d2] | > 250 nM | > 250 nM |  |  |
| C[C@H]1CCCOc2cc(cc(F)n2)Nc2cc(n[nH]2)[C@H]2CC[C@H](C2)OC(=O)N1 [Compound 178, (1^1S,1^3R,9S,Z)-4^6-fluoro-9-methyl-2^1H-5,12-dioxa-3,10-diaza-4(4,2)-pyridina-2(3,5)-pyrazola-1(1,3)-cyclopentanacyclododecaphan-11-one] | 50 to 250 nM | 10 to 50 nM |  |  |
| C[C@H]1CCCOc2ncc(F)c(c2F)Nc2cc(n[nH]2)[C@H]2CC[C@H](C2)OC(=O)N1 [Compound 180, (1^1S,1^3R,9S,Z)-4^3,4^5-difluoro-9-methyl-2^1H-5,12-dioxa-3,10-diaza-4(4,2)-pyridina-2(3,5)-pyrazola-1(1,3)-cyclopentanacyclododecaphan-11-one] | > 250 nM | > 250 nM |  |  |
| C[C@H]1CCCOc2cc(ccn2)Nc2[nH]nc(c2Cl)[C@H]2CC[C@H](C2)OC(=O)N1 [Compound 184, (1^1S,1^3R,9S,E)-2^4-chloro-9-methyl-2^1H-5,12-dioxa-3,10-diaza-4(4,2)-pyridina-2(3,5)-pyrazola-1(1,3)-cyclopentanacyclododecaphan-11-one] | > 250 nM | > 250 nM |  |  |

Continued, values first:

| IC50 ([1]; Homo sapiens, OVCAR-3, 144 h) | IC50 [2, 3] | IC50 [1] | IC50 ([2]; 24 hours) | SMILES |
| --- | --- | --- | --- | --- |
|  | 2 to 10 nM |  |  | C[C@@H]1NC(=O)O[C@H]2C[C@H](C[C@H]2F)c2cc([nH]n2)Nc2ccnc(c2)OCCC1(F)F [Compound 226, (1^1R,1^3S,1^4R,9S,Z)-1^4,8,8-trifluoro-9-methyl-2^1H-5,12-dioxa-3,10-diaza-4(4,2)-pyridina-2(3,5)-pyrazola-1(1,3)-cyclopentanacyclododecaphan-11-one] |
|  | 10 to 50 nM |  |  | C[C@@H]1NC(=O)O[C@@H]2C[C@@H](C[C@@H]2F)c2cc([nH]n2)Nc2ccnc(c2)OCCC1(F)F [Compound 227, (1^1S,1^3R,1^4S,9S,Z)-1^4,8,8-trifluoro-9-methyl-2^1H-5,12-dioxa-3,10-diaza-4(4,2)-pyridina-2(3,5)-pyrazola-1(1,3)-cyclopentanacyclododecaphan-11-one] |
|  | 10 to 50 nM |  |  | C[C@@H]1NC(=O)O[C@H]2CC(C[C@H]2F)c2n[nH]c(c2F)Nc2ccnc(c2)OCCC1(F)F [Compound 239, (1^1R,1^3S,1^4R,9S,E)-1^4,2^4,8,8-tetrafluoro-9-methyl-2^1H-5,12-dioxa-3,10-diaza-4(4,2)-pyridina-2(3,5)-pyrazola-1(1,3)-cyclopentanacyclododecaphan-11-one] |
|  | 10 to 50 nM |  |  | C[C@@H]1NC(=O)O[C@@H]2CC(C[C@@H]2F)c2n[nH]c(c2F)Nc2ccnc(c2)OCCC1(F)F [Compound 240, (1^1S,1^3R,1^4S,9S,E)-1^4,2^4,8,8-tetrafluoro-9-methyl-2^1H-5,12-dioxa-3,10-diaza-4(4,2)-pyridina-2(3,5)-pyrazola-1(1,3)-cyclopentanacyclododecaphan-11-one] |
|  | ≤ 2 nM |  |  | C[C@H]1CCCOc2cncc(n2)Nc2cc(n[nH]2)C2C[C@@H](F)[C@H](C2)OC(=O)N1 [Compound 242, (1^1R,1^3S,1^4R,9S,Z)-1^4-fluoro-9-methyl-2^1H-5,12-dioxa-3,10-diaza-4(2,6)-pyrazina-2(3,5)-pyrazola-1(1,3)-cyclopentanacyclododecaphan-11-one] |
|  | ≤ 2 nM |  |  | C[C@H]1CCCOc2cncc(n2)Nc2[nH]nc(c2F)C2C[C@@H](F)[C@H](C2)OC(=O)N1 [Compound 243, (1^1R,1^3S,1^4R,9S,E)-1^4,2^4-difluoro-9-methyl-2^1H-5,12-dioxa-3,10-diaza-4(2,6)-pyrazina-2(3,5)-pyrazola-1(1,3)-cyclopentanacyclododecaphan-11-one] |
